Laboratory results published in publication PMC5218480 (PLoS ONE, 2017).

Test system: MV-4-11 cells
Experiment: Gene expression microarray analysis (Affymetrix PrimeView) and GSEA
Type: cell-based, human
Design: RFU PODN (11730768_x_at) / Fold change /veh PODN (11730768_x_at) / RFU LINC00158 (11744669_a_at) / Fold change /veh LINC00158 (11744669_a_at) / RFU DUSP10 (11751237_a_at) / Fold change /veh DUSP10 (11751237_a_at) / RFU ID3 (11757404_x_at) / Fold change /veh ID3 (11757404_x_at) / RFU PLEKHG5 (11737974_s_at) / Fold change /veh PLEKHG5 (11737974_s_at) / RFU LRRC4B (11730491_at) / Fold change /veh LRRC4B (11730491_at) / RFU GIMAP4 (11747438_a_at) / Fold change /veh GIMAP4 (11747438_a_at) / RFU KRT8 (11758183_x_at) / Fold change /veh KRT8 (11758183_x_at) / RFU CNN1 (11734310_a_at) / Fold change /veh CNN1 (11734310_a_at) / RFU VPS37D (11726825_at) / Fold change /veh VPS37D (11726825_at) / RFU C10orf10 (11716522_x_at) / Fold change /veh C10orf10 (11716522_x_at) / RFU KIR2DL2 /// KIR2DL4 /// KIR2DL5A /// KIR2DL5B /// KIR2DS1 /// KIR2DS2 /// KIR2DS3 /// KIR2DS4 /// KIR3DL3 /// KIR3DL3 /// KIR3DS1 (11738374_at) / Fold change /veh KIR2DL2 /// KIR2DL4 /// KIR2DL5A /// KIR2DL5B /// KIR2DS1 /// KIR2DS2 /// KIR2DS3 /// KIR2DS4 /// KIR3DL3 /// KIR3DL3 /// KIR3DS1 (11738374_at) / RFU C1QL1 (11718748_at) / Fold change /veh C1QL1 (11718748_at) / RFU TMPRSS4 (11747572_a_at) / Fold change /veh TMPRSS4 (11747572_a_at) / RFU HAMP (11756126_x_at) / Fold change /veh HAMP (11756126_x_at) / RFU RNFT2 (11725882_a_at) / Fold change /veh RNFT2 (11725882_a_at) / RFU NR4A2 (11747474_a_at) / Fold change /veh NR4A2 (11747474_a_at) / RFU ABCC12 (11746883_a_at) / Fold change /veh ABCC12 (11746883_a_at) / RFU TMEM136 (11760407_x_at) / Fold change /veh TMEM136 (11760407_x_at) / RFU CLDN22 /// WWC2 (11732394_at) / Fold change /veh CLDN22 /// WWC2 (11732394_at) / RFU HLA-DPB1 (11760878_x_at) / Fold change /veh HLA-DPB1 (11760878_x_at) / RFU SPINT1 (11716480_a_at) / Fold change /veh SPINT1 (11716480_a_at) / RFU GAP43 (11754022_s_at) / Fold change /veh GAP43 (11754022_s_at) / RFU A4GNT (11735810_at) / Fold change /veh A4GNT (11735810_at) / RFU PRB3 (11715151_x_at) / Fold change /veh PRB3 (11715151_x_at) / RFU TUBB4B (11761932_at) / Fold change /veh TUBB4B (11761932_at) / RFU CAPN14 (11732068_a_at) / Fold change /veh CAPN14 (11732068_a_at) / RFU TMCC2 (11721928_a_at) / Fold change /veh TMCC2 (11721928_a_at) / RFU IRGQ (11745062_a_at) / Fold change /veh IRGQ (11745062_a_at) / RFU FAM174B (11720279_a_at) / Fold change /veh FAM174B (11720279_a_at) / RFU TMPRSS4 (11748680_a_at) / Fold change /veh TMPRSS4 (11748680_a_at) / RFU FAM212B (11763350_a_at) / Fold change /veh FAM212B (11763350_a_at) / RFU PLEKHG5 (11743358_a_at) / Fold change /veh PLEKHG5 (11743358_a_at) / RFU ZSCAN30 (11745921_a_at) / Fold change /veh ZSCAN30 (11745921_a_at) / RFU CMKLR1 (11741424_a_at) / Fold change /veh CMKLR1 (11741424_a_at) / RFU LOC101060620 /// MAPK8IP1 (11723275_at) / Fold change /veh LOC101060620 /// MAPK8IP1 (11723275_at) / RFU SPTSSB (11747773_x_at) / Fold change /veh SPTSSB (11747773_x_at) / RFU PRSS12 (11739890_at) / Fold change /veh PRSS12 (11739890_at) / RFU BIN1 (11741810_x_at) / Fold change /veh BIN1 (11741810_x_at) / RFU WNT11 (11732464_a_at) / Fold change /veh WNT11 (11732464_a_at) / RFU C10orf10 (11716521_a_at) / Fold change /veh C10orf10 (11716521_a_at) / RFU C5orf56 (11738089_at) / Fold change /veh C5orf56 (11738089_at) / RFU CYB561 (11721691_x_at) / Fold change /veh CYB561 (11721691_x_at) / RFU ANKRD19P (11752326_a_at) / Fold change /veh ANKRD19P (11752326_a_at) / RFU OR2T12 /// OR2T33 /// OR2T8 (11738714_s_at) / Fold change /veh OR2T12 /// OR2T33 /// OR2T8 (11738714_s_at) / RFU VCAN (11748164_a_at) / Fold change /veh VCAN (11748164_a_at) / RFU JSRP1 (11732532_at) / Fold change /veh JSRP1 (11732532_at) / RFU KRTAP10-11 (11738290_x_at) / Fold change /veh KRTAP10-11 (11738290_x_at) / RFU MYO3A (11730013_a_at) / Fold change /veh MYO3A (11730013_a_at) / RFU EBF3 (11725865_a_at) / Fold change /veh EBF3 (11725865_a_at) / RFU CAMK2N1 (11719241_x_at) / Fold change /veh CAMK2N1 (11719241_x_at) / RFU C5orf56 (11738088_a_at) / Fold change /veh C5orf56 (11738088_a_at) / RFU OLFML3 (11715873_a_at) / Fold change /veh OLFML3 (11715873_a_at) / RFU LOC100653217 /// NTM (11731650_a_at) / Fold change /veh LOC100653217 /// NTM (11731650_a_at) / RFU MAPK11 (11762145_a_at) / Fold change /veh MAPK11 (11762145_a_at) / RFU FIZ1 (11724087_x_at) / Fold change /veh FIZ1 (11724087_x_at) / RFU OASL (11726364_x_at) / Fold change /veh OASL (11726364_x_at) / RFU SOX15 (11748057_x_at) / Fold change /veh SOX15 (11748057_x_at) / RFU CD79A (11719716_a_at) / Fold change /veh CD79A (11719716_a_at) / RFU HIST1H1D (11736915_at) / Fold change /veh HIST1H1D (11736915_at) / RFU CASKIN2 (11723855_a_at) / Fold change /veh CASKIN2 (11723855_a_at) / RFU LOC730098 (11760151_x_at) / Fold change /veh LOC730098 (11760151_x_at) / RFU OR4N2 (11742367_at) / Fold change /veh OR4N2 (11742367_at) / RFU PRRT2 (11749266_a_at) / Fold change /veh PRRT2 (11749266_a_at) / RFU SNX32 (11753110_a_at) / Fold change /veh SNX32 (11753110_a_at) / RFU CDHR5 (11726645_a_at) / Fold change /veh CDHR5 (11726645_a_at) / RFU RCAN1 (11760418_a_at) / Fold change /veh RCAN1 (11760418_a_at) / RFU FAM167A (11723789_a_at) / Fold change /veh FAM167A (11723789_a_at) / RFU FAM26E (11764081_at) / Fold change /veh FAM26E (11764081_at) / RFU ISYNA1 (11749810_s_at) / Fold change /veh ISYNA1 (11749810_s_at) / RFU ACY1 (11761880_at) / Fold change /veh ACY1 (11761880_at) / RFU 11764098_at / Fold change /veh 11764098_at / RFU SAMD14 (11745864_x_at) / Fold change /veh SAMD14 (11745864_x_at) / RFU NPB (11741838_a_at) / Fold change /veh NPB (11741838_a_at) / RFU TMPRSS6 (11731388_a_at) / Fold change /veh TMPRSS6 (11731388_a_at) / RFU KRTAP10-2 (11738614_at) / Fold change /veh KRTAP10-2 (11738614_at) / RFU ARHGAP8 /// PRR5-ARHGAP8 (11727945_x_at) / Fold change /veh ARHGAP8 /// PRR5-ARHGAP8 (11727945_x_at) / RFU KRTAP5-7 /// NADSYN1 (11734609_at) / Fold change /veh KRTAP5-7 /// NADSYN1 (11734609_at) / RFU RASL12 (11751679_a_at) / Fold change /veh RASL12 (11751679_a_at) / RFU CDKN2B (11736163_a_at) / Fold change /veh CDKN2B (11736163_a_at) / RFU PRF1 (11729649_at) / Fold change /veh PRF1 (11729649_at) / RFU, ZNF638 /// ZNF638-IT1 / Fold change vs veh, ZNF638 /// ZNF638-IT1 / RFU, PANK3 / Fold change vs veh, PANK3 / RFU, SH3YL1 / Fold change vs veh, SH3YL1 / RFU, ZEB2 / Fold change vs veh, ZEB2 / RFU, NRIP1 / Fold change vs veh, NRIP1 / RFU, PTTG1IP / Fold change vs veh, PTTG1IP / RFU, CAPN2 / Fold change vs veh, CAPN2 / RFU, MED14 / Fold change vs veh, MED14 / RFU, SNORA58 / Fold change vs veh, SNORA58 / RFU, C1orf63 / Fold change vs veh, C1orf63 / RFU, LRRFIP1 / Fold change vs veh, LRRFIP1 / RFU, NDUFAF7 / Fold change vs veh, NDUFAF7 / RFU, SLC12A2 / Fold change vs veh, SLC12A2 / RFU, IBTK / Fold change vs veh, IBTK / RFU, ESF1 / Fold change vs veh, ESF1 / Fold change vs veh, TMEM50B / RFU, TAOK1 / Fold change vs veh, TAOK1 / RFU, ACBD3 / Fold change vs veh, ACBD3 / RFU, TMA16 / Fold change vs veh, TMA16 / RFU, RWDD3 / Fold change vs veh, RWDD3 / RFU, BCAT1 / Fold change vs veh, BCAT1 / RFU, EDEM3 / Fold change vs veh, EDEM3 / RFU, TMEM33 / Fold change vs veh, TMEM33 / RFU, WDR75 / Fold change vs veh, WDR75 / RFU, AHCTF1 / Fold change vs veh, AHCTF1 / RFU, TFRC / Fold change vs veh, TFRC / RFU, ZDHHC17 / Fold change vs veh, ZDHHC17 / RFU, NOM1 / Fold change vs veh, NOM1 / RFU, ARL8B / Fold change vs veh, ARL8B / RFU, ZBTB11 / Fold change vs veh, ZBTB11 / RFU, TAMM41 / Fold change vs veh, TAMM41 / RFU, KIAA1704 /// LOC100996395 / Fold change vs veh, KIAA1704 /// LOC100996395 / RFU, ING1 / Fold change vs veh, ING1 / RFU, TRMT61B / Fold change vs veh, TRMT61B / RFU, FUBP3 / Fold change vs veh, FUBP3 / RFU, TP53 / Fold change vs veh, TP53 / RFU, TNKS2 / Fold change vs veh, TNKS2 / RFU, ZFP14 / Fold change vs veh, ZFP14 / RFU, ACTR2 / Fold change vs veh, ACTR2 / RFU, PPP3R1 / Fold change vs veh, PPP3R1 / RFU, PIK3R1 / Fold change vs veh, PIK3R1 / RFU, HNRNPA1 / Fold change vs veh, HNRNPA1 / RFU, RNF170 / Fold change vs veh, RNF170 / RFU, ZNF28 / Fold change vs veh, ZNF28 / RFU, RNGTT / Fold change vs veh, RNGTT / RFU, OGT / Fold change vs veh, OGT / RFU, BRD1 / Fold change vs veh, BRD1 / RFU, MARS / Fold change vs veh, MARS / RFU, ZNF655 / Fold change vs veh, ZNF655 / RFU, FAHD1 / Fold change vs veh, FAHD1 / RFU, BDP1 / Fold change vs veh, BDP1 / RFU, LRRCC1 / Fold change vs veh, LRRCC1 / RFU, ARID1A / Fold change vs veh, ARID1A / RFU, ZNF146 / Fold change vs veh, ZNF146 / RFU, ZNF330 / Fold change vs veh, ZNF330 / RFU, GPN3 / Fold change vs veh, GPN3 / RFU, C9orf123 / Fold change vs veh, C9orf123 / RFU, N4BP2L2 / Fold change vs veh, N4BP2L2 / RFU, ARFIP1 / Fold change vs veh, ARFIP1 / RFU, FAM179B / Fold change vs veh, FAM179B / RFU, BCL10 / Fold change vs veh, BCL10 / RFU, UHRF1BP1L / Fold change vs veh, UHRF1BP1L / RFU, BET1 / Fold change vs veh, BET1 / RFU, CNOT2 / Fold change vs veh, CNOT2 / RFU, ZNF268 / Fold change vs veh, ZNF268 / Fold change vs veh, ZNF507 / RFU, DGCR2 / Fold change vs veh, DGCR2 / RFU, WDSUB1 / Fold change vs veh, WDSUB1 / Fold change vs veh, HSP90B1 /// MIR3652 / RFU, ADSS / Fold change vs veh, ADSS / RFU, GK / Fold change vs veh, GK / RFU, ZNF148 / Fold change vs veh, ZNF148 / RFU, TAF9 / Fold change vs veh, TAF9 / RFU, SLC1A5 / Fold change vs veh, SLC1A5 / RFU, SLMO2 / Fold change vs veh, SLMO2 / RFU, ABCC4 / Fold change vs veh, ABCC4 / RFU, LOC101060439 /// RAP1B / Fold change vs veh, LOC101060439 /// RAP1B / RFU, RFX7 / Fold change vs veh, RFX7 / RFU, GTPBP10 / Fold change vs veh, GTPBP10 / RFU, CNEP1R1 / Fold change vs veh, CNEP1R1 / RFU, BIVM-ERCC5 /// ERCC5 / Fold change vs veh, BIVM-ERCC5 /// ERCC5 / RFU, ILF3 / Fold change vs veh, ILF3 / RFU 11762660_at / Fold change /veh 11762660_at / RFU VCAN (11757783_s_at) / Fold change /veh VCAN (11757783_s_at) / RFU DDX43 (11728927_at) / Fold change /veh DDX43 (11728927_at) / RFU KRT8 (11758188_x_at) / Fold change /veh KRT8 (11758188_x_at) / RFU NKD1 (11759106_at) / Fold change /veh NKD1 (11759106_at) / RFU SRD5A1 (11742802_a_at) / Fold change /veh SRD5A1 (11742802_a_at) / RFU TPSAB1 /// TPSB2 (11721975_s_at) / Fold change /veh TPSAB1 /// TPSB2 (11721975_s_at) / RFU GSTM3 (11746129_a_at) / Fold change /veh GSTM3 (11746129_a_at) / RFU IL23R (11737362_x_at) / Fold change /veh IL23R (11737362_x_at) / RFU TMEM51 (11727254_a_at) / Fold change /veh TMEM51 (11727254_a_at) / RFU PIWIL2 (11732686_x_at) / Fold change /veh PIWIL2 (11732686_x_at) / RFU ORM1 (11744905_x_at) / Fold change /veh ORM1 (11744905_x_at) / RFU CCDC152 (11743942_at) / Fold change /veh CCDC152 (11743942_at) / RFU ECM1 (11717891_a_at) / Fold change /veh ECM1 (11717891_a_at) / RFU IL23R (11748794_a_at) / Fold change /veh IL23R (11748794_a_at) / RFU TNFAIP8L3 (11732012_x_at) / Fold change /veh TNFAIP8L3 (11732012_x_at) / RFU MBOAT4 (11741988_at) / Fold change /veh MBOAT4 (11741988_at) / RFU 11764193_at / Fold change /veh 11764193_at / RFU TMEM53 (11763286_at) / Fold change /veh TMEM53 (11763286_at) / RFU MAGEB2 (11727129_at) / Fold change /veh MAGEB2 (11727129_at) / RFU TMEM200A (11744735_a_at) / Fold change /veh TMEM200A (11744735_a_at) / RFU CCDC152 (11751479_a_at) / Fold change /veh CCDC152 (11751479_a_at) / RFU FAM211A (11726209_a_at) / Fold change /veh FAM211A (11726209_a_at) / RFU RGS16 (11746705_a_at) / Fold change /veh RGS16 (11746705_a_at) / RFU VCAN (11755009_s_at) / Fold change /veh VCAN (11755009_s_at) / RFU RHOB (11743442_s_at) / Fold change /veh RHOB (11743442_s_at) / RFU RGS16 (11720943_a_at) / Fold change /veh RGS16 (11720943_a_at) / RFU RGS16 (11720944_at) / Fold change /veh RGS16 (11720944_at) / RFU, VPS4B / Fold change vs veh, VPS4B / RFU, CREB1 / Fold change vs veh, CREB1 / RFU, DNAJC13 / Fold change vs veh, DNAJC13 / RFU, GNAQ / Fold change vs veh, GNAQ / RFU, CDK5R1 / Fold change vs veh, CDK5R1 / RFU, ZRANB3 / Fold change vs veh, ZRANB3 / RFU, CUL4A / Fold change vs veh, CUL4A / RFU, CCNY / Fold change vs veh, CCNY / RFU, UFL1 / Fold change vs veh, UFL1 / RFU, COG3 / Fold change vs veh, COG3 / RFU, DIAPH2 / Fold change vs veh, DIAPH2 / RFU, SKA2 / Fold change vs veh, SKA2 / RFU, AFF3 / Fold change vs veh, AFF3 / RFU, LMF1 / Fold change vs veh, LMF1 / RFU, IPO11 / Fold change vs veh, IPO11 / RFU, DFFB / Fold change vs veh, DFFB / RFU, FOXP1 / Fold change vs veh, FOXP1 / RFU, CARD8 / Fold change vs veh, CARD8 / RFU, STRN3 / Fold change vs veh, STRN3 / RFU, ADK / Fold change vs veh, ADK / RFU, RASSF2 / Fold change vs veh, RASSF2 / RFU, WIPF1 / Fold change vs veh, WIPF1 / RFU, LARP1B / Fold change vs veh, LARP1B / RFU, RASA1 / Fold change vs veh, RASA1 / RFU, RB1 / Fold change vs veh, RB1 / RFU, PPFIA1 / Fold change vs veh, PPFIA1 / RFU, MAT2A / Fold change vs veh, MAT2A / RFU, CCT5 / Fold change vs veh, CCT5 / RFU, WDR92 / Fold change vs veh, WDR92 / RFU, CUX1 / Fold change vs veh, CUX1 / RFU, TTC7A / Fold change vs veh, TTC7A / RFU, TMEM135 / Fold change vs veh, TMEM135 / RFU, DEPTOR / Fold change vs veh, DEPTOR / RFU, CPM / Fold change vs veh, CPM / RFU, DNAJB6 / Fold change vs veh, DNAJB6 / RFU, CACNA2D3 / Fold change vs veh, CACNA2D3 / RFU, DTX4 / Fold change vs veh, DTX4 / RFU, TFCP2 / Fold change vs veh, TFCP2 / RFU, GMCL1 /// GMCL1P1 / Fold change vs veh, GMCL1 /// GMCL1P1 / RFU, AEBP2 / Fold change vs veh, AEBP2 / RFU, SNHG1 /// SNORD22 /// SNORD25 /// SNORD26 /// SNORD27 /// SNORD28 /// SNORD29 /// SNORD31 / Fold change vs veh, SNHG1 /// SNORD22 /// SNORD25 /// SNORD26 /// SNORD27 /// SNORD28 /// SNORD29 /// SNORD31 / Fold change (Aza/veh), C12orf56 (ProbeSet 11735607_a_at) / Fold change (ACY-1035/veh), C12orf56 (ProbeSet 11735607_a_at) / Fold change (Aza/veh), FGFR1OP (ProbeSet 11751329_s_at) / Fold change (ACY-1035/veh), FGFR1OP (ProbeSet 11751329_s_at) / Fold change (Aza/veh), VPS36 (ProbeSet 11739960_a_at) / Fold change (ACY-1035/veh), VPS36 (ProbeSet 11739960_a_at) / RFU SYPL1 (11715823_x_at) / Fold change /veh SYPL1 (11715823_x_at) / RFU IGFBP7 (11715501_s_at) / Fold change /veh IGFBP7 (11715501_s_at) / RFU REEP3 (11722064_at) / Fold change /veh REEP3 (11722064_at) / RFU IGLL1 (11728026_x_at) / Fold change /veh IGLL1 (11728026_x_at): dose or concentration left out as unconfirmed
Settings: ProbeSet 11720154_at; LIST B

Nc1ccc(-c2cccs2)cc1NC(=O)c1ccc2c(c1)cc(C1CC1)n2CCN1CCOCC1 [ACY-1035]
Fold change vs veh, NRIP1: 0.88
